Measurements taken from PubChem BioAssay AID256 (DTP/NCI, 2004).
Where “and” joins values, the source holds several entries; their conditions need not be identical. Equal entries are not always repeated. Inconclusive results and toxic doses are left out. The calls were made as follows: active = survival T/C of 150% or more; inactive = T/C below 125% in these data.

Tested on: CD2F1 mice, L1210 leukemia ip, survival T/C
Assay: NCI In Vivo Anticancer Drug Screen. Data for tumor model L1210 Leukemia (intraperitoneal) in CD2F1 (CDF1) mice
Conditions: higher = longer survival
Procedure, shortened: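 Vehicle-treated tumor-bearing mice served as controls (C) for compound-treated mice (T). Reported figure is T divided by C.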

Measured: T/C

C/C(=N/NC(N)=S)c1ccc(NC(=O)C(Cl)Cl)cc1
inactive: endpoint: mean survival time, dose: 75.0 mg/kg/injection, schedule: Q01DX001 (ip), vehicle: saline 100 % of control | endpoint: mean survival time, dose: 150.0 mg/kg/injection, schedule: Q01DX001 (ip), vehicle: saline 96 % of control

CCCN=C(N)C(N)=NCCC (tested in a mixture with another compound)
inactive: endpoint: mean survival time, dose: 100.0 mg/kg/injection, schedule: Q04DX002 (ip), vehicle: other 106 % of control | endpoint: mean survival time, dose: 100.0 mg/kg/injection, schedule: Q04DX002 (ip), vehicle: saline with Tween-80 95 % of control | endpoint: mean survival time, dose: 200.0 mg/kg/injection, schedule: Q04DX002 (ip), vehicle: other 103 % of control | endpoint: mean survival time, dose: 200.0 mg/kg/injection, schedule: Q04DX002 (ip), vehicle: saline with Tween-80 100 % of control | endpoint: mean survival time, dose: 400.0 mg/kg/injection, schedule: Q04DX002 (ip), vehicle: other 91 % of control | endpoint: mean survival time, dose: 400.0 mg/kg/injection, schedule: Q04DX002 (ip), vehicle: saline with Tween-80 91 % of control

O=C1C=C(N2CC2)C(=O)C(N2CC2)=C1N1CC1
active: endpoint: median survival time, dose: 100.0 micrograms/kg/injection, schedule: Q01DX009 (ip), vehicle: saline with Tween-80 156 % of control | endpoint: median survival time, dose: 200.0 micrograms/kg/injection, schedule: Q01DX009 (ip), vehicle: saline with Tween-80 164 % of control and 190 % of control
inactive: endpoint: median survival time, dose: 12.5 micrograms/kg/injection, schedule: Q01DX009 (ip), vehicle: saline 113 % of control | endpoint: median survival time, dose: 25.0 micrograms/kg/injection, schedule: Q01DX009 (ip), vehicle: saline with Tween-80 96 % of control | endpoint: median survival time, dose: 25.0 micrograms/kg/injection, schedule: Q01DX009 (ip), vehicle: saline 113 % of control | endpoint: median survival time, dose: 50.0 micrograms/kg/injection, schedule: Q01DX009 (ip), vehicle: saline with Tween-80 118 % of control and 108 % of control | endpoint: median survival time, dose: 400.0 micrograms/kg/injection, schedule: Q01DX009 (ip), vehicle: saline with Tween-80 87 % of control and 91 % of control

Cc1c2ccn(O)cc2c(C)c2c1nc1ccccc12
inactive: endpoint: mean survival time, dose: 25.0 mg/kg/injection, schedule: Q04DX003 (ip), vehicle: water 110 % of control | endpoint: mean survival time, dose: 50.0 mg/kg/injection, schedule: Q04DX003 (ip), vehicle: water 103 % of control | endpoint: mean survival time, dose: 100.0 mg/kg/injection, schedule: Q04DX003 (ip), vehicle: water 110 % of control | endpoint: mean survival time, dose: 200.0 mg/kg/injection, schedule: Q04DX003 (ip), vehicle: water 105 % of control | endpoint: mean survival time, dose: 400.0 mg/kg/injection, schedule: Q04DX003 (ip), vehicle: water 106 % of control

NNC(=O)Sc1ccccc1
inactive: endpoint: mean survival time, dose: 100.0 mg/kg/injection, schedule: Q01DX001 (ip), vehicle: saline 107 % of control | endpoint: mean survival time, dose: 200.0 mg/kg/injection, schedule: Q01DX001 (ip), vehicle: saline 111 % of control | endpoint: mean survival time, dose: 400.0 mg/kg/injection, schedule: Q01DX001 (ip), vehicle: saline 102 % of control

CC[C@@]1(OP(=O)(O)O)C(=O)OCc2c1cc1n(c2=O)Cc2cc3ccccc3nc2-1
inactive: endpoint: median survival time, dose: 5.5 mg/kg/injection, schedule: Q04DX002 (ip), vehicle: water 111 % of control and 112 % of control | endpoint: median survival time, dose: 11.0 mg/kg/injection, schedule: Q04DX002 (ip), vehicle: water 119 % of control and 104 % of control
active: endpoint: median survival time, dose: 8.25 mg/kg/injection, schedule: Q04HX004 (iv), vehicle: water 154 % of control | endpoint: median survival time, dose: 16.5 mg/kg/injection, schedule: Q04HX004 (iv), vehicle: water 158 % of control and 180 % of control | endpoint: median survival time, dose: 33.0 mg/kg/injection, schedule: Q04HX004 (iv), vehicle: water 177 % of control and 221 % of control | endpoint: median survival time, dose: 44.0 mg/kg/injection, schedule: Q04DX002 (ip), vehicle: water 158 % of control and 192 % of control | endpoint: median survival time, dose: 44.0 mg/kg/injection, schedule: Q04HX004 (iv), vehicle: water 207 % of control

S=C(S)OCc1ccccc1.[Pt]
inactive: endpoint: mean survival time, dose: 25.0 mg/kg/injection, schedule: Q04DX003 (ip), vehicle: saline with Tween-80 102 % of control | endpoint: mean survival time, dose: 50.0 mg/kg/injection, schedule: Q04DX003 (ip), vehicle: saline with Tween-80 102 % of control | endpoint: mean survival time, dose: 100.0 mg/kg/injection, schedule: Q04DX003 (ip), vehicle: saline with Tween-80 104 % of control | endpoint: mean survival time, dose: 200.0 mg/kg/injection, schedule: Q04DX003 (ip), vehicle: saline with Tween-80 102 % of control | endpoint: mean survival time, dose: 400.0 mg/kg/injection, schedule: Q04DX003 (ip), vehicle: saline with Tween-80 104 % of control
